Experimental data from patent publication US6277847A, “Herbicidal isoindolinonyl-and 3,4-dihydroisoquinolonyl-substituted heterocycles” (FMC Corporation, priority 2000, dated 2001).

Tests used:
Format in all cases: in vivo
[1] = tested on: soybean (Glycine max -- var. Winchester); experiment: pre-emergence herbicidal activity, soybean; settings: 1 kg/Ha, about fourteen days, read-out: pre-emergence herbicidal activity (% control) SOY
Experimental: (§1) This example sets forth the methods of herbicidal testing conducted on the specific compounds set forth below. Specifically, the compounds referenced below were tested for pre- and post-emergence herbicidal activity using a variety of crops and weeds. The test plants include, but are not limited to, soybean (Glycine max -- var. Winchester), field corn (Zea mays var. Pioneer 3732), wheat (Triticum aestivum var. Lew), morningglory (Ipomea lacunosa or Ipomea hederacea), velvetleaf (Abutilon theophrasti), green foxtail (Setaria viridis), Johnsongrass (Sorghum halepense), blackgrass (Aloepecurus myosuroides), common chickweed (Stellaria media), and common cocklebur (Xanthium strumarium L.).
(§2) In the post-emergence test, seeds of the plant species named above were planted in flats containing the appropriate soil mixture where they were maintained to allow the seeds to germinate. When the plants in these flats reached the proper stage of growth, flats for the pre-emergence tests were planted in a like manner. The flats containing the post-emergence and pre-emergence test plant species were then sprayed with an appropriately concentrated water/acetone solution of test compound. Once treated the flats were maintained, along with untreated controls, for about fourteen days. All treated plants were then examined for phytotoxicity, which was expressed as percent control where 0 is no effect and 100 is complete control. Effective rates of application for the compounds of the present invention range from 0.001 to 3 kg/ha, more likely from […] to 1 Kg/ha.
(§3) Herbicidal activity data at selected application rates are in Tables 4 and 5. The test compounds are identified by numbers correspond to those in Table 1.
(§4) Rate of application of test compound is 1 kg/Ha
(§5) SOY is soybean, WHT is wheat, CRN is corn, ABUTH is velvetleaf, IPOSS is
(§6) morningglory, STEME is chickweed, XANPE is cocklebur, ALOMY is blackgrass, […]

[2] = tested on: wheat (Triticum aestivum var. Lew); experiment: pre-emergence herbicidal activity, wheat; settings: 1 kg/Ha, about fourteen days, read-out: pre-emergence herbicidal activity (% control) WHT
Experimental: as §1, §2, §3, §4, §5, §6

[3] = tested on: field corn (Zea mays var. Pioneer 3732); experiment: pre-emergence herbicidal activity, corn; settings: 1 kg/Ha, about fourteen days, read-out: pre-emergence herbicidal activity (% control) CRN
Experimental: as §1, §2, §3, §4, §5, §6

[4] = tested on: velvetleaf (Abutilon theophrasti); experiment: pre-emergence herbicidal activity, velvetleaf; settings: 1 kg/Ha, about fourteen days, read-out: pre-emergence herbicidal activity (% control) ABUTH
Experimental: as §1, §2, §3, §4, §5, §6

[5] = tested on: morningglory (Ipomea lacunosa or Ipomea hederacea); experiment: pre-emergence herbicidal activity, morningglory; settings: Ipomoea, 1 kg/Ha, about fourteen days, read-out: pre-emergence herbicidal activity (% control) IPOSS
Experimental: as §1, §2, §3, §4, §5, §6

[6] = tested on: common chickweed (Stellaria media); experiment: pre-emergence herbicidal activity, chickweed; settings: 1 kg/Ha, about fourteen days, read-out: pre-emergence herbicidal activity (% control) STEME
Experimental: as §1, §2, §3, §4, §5, §6

[7] = tested on: common cocklebur (Xanthium strumarium L.); experiment: pre-emergence herbicidal activity, cocklebur; settings: 1 kg/Ha, about fourteen days, read-out: pre-emergence herbicidal activity (% control) XANPE
Experimental: as §1, §2, §3, §4, §5, §6

[8] = tested on: blackgrass (Aloepecurus myosuroides); experiment: pre-emergence herbicidal activity, blackgrass; settings: Alopecurus myosuroides, 1 kg/Ha, about fourteen days, read-out: pre-emergence herbicidal activity (% control) ALOMY
Experimental: as §1, §2, §3, §4, §5, §6

[9] = tested on: green foxtail (Setaria viridis); experiment: pre-emergence herbicidal activity, green foxtail; settings: 1 kg/Ha, about fourteen days, read-out: pre-emergence herbicidal activity (% control) SETVI
Experimental: as §1, §2, §3, §4, §5, §6

[10] = tested on: soybean (Glycine max -- var. Winchester); experiment: post-emergence herbicidal activity, soybean; settings: 1 Kg/Ha, about fourteen days, read-out: post-emergence herbicidal activity (% control) SOY
Experimental: as §1, §2, §3, §5
(§7) morningglory, STEME is chickweed, XANPE is cocklebur, ALOMY is blackgrass,
(§8) Rate of application of test compound is 1 Kg/Ha. The definitions as shown under Table 4 apply to Table 5.

[11] = tested on: wheat (Triticum aestivum var. Lew); experiment: post-emergence herbicidal activity, wheat; settings: 1 Kg/Ha, about fourteen days, read-out: post-emergence herbicidal activity (% control) WHT
Experimental: as §1, §2, §3, §5, §7, §8

[12] = tested on: field corn (Zea mays var. Pioneer 3732); experiment: post-emergence herbicidal activity, corn; settings: 1 Kg/Ha, about fourteen days, read-out: post-emergence herbicidal activity (% control) CRN
Experimental: as §1, §2, §3, §5, §7, §8

[13] = tested on: velvetleaf (Abutilon theophrasti); experiment: post-emergence herbicidal activity, velvetleaf; settings: 1 Kg/Ha, about fourteen days, read-out: post-emergence herbicidal activity (% control) ABUTH
Experimental: as §1, §2, §3, §5, §7, §8

[14] = tested on: morningglory (Ipomea lacunosa or Ipomea hederacea); experiment: post-emergence herbicidal activity, morningglory; settings: Ipomoea, 1 Kg/Ha, about fourteen days, read-out: post-emergence herbicidal activity (% control) IPOSS
Experimental: as §1, §2, §3, §5, §7, §8

[15] = tested on: common chickweed (Stellaria media); experiment: post-emergence herbicidal activity, chickweed; settings: 1 Kg/Ha, about fourteen days, read-out: post-emergence herbicidal activity (% control) STEME
Experimental: as §1, §2, §3, §5, §7, §8

[16] = tested on: common cocklebur (Xanthium strumarium L.); experiment: post-emergence herbicidal activity, cocklebur; settings: 1 Kg/Ha, about fourteen days, read-out: post-emergence herbicidal activity (% control) XANPE
Experimental: as §1, §2, §3, §5, §7, §8

[17] = tested on: blackgrass (Aloepecurus myosuroides); experiment: post-emergence herbicidal activity, blackgrass; settings: Alopecurus myosuroides, 1 Kg/Ha, about fourteen days, read-out: post-emergence herbicidal activity (% control) ALOMY
Experimental: as §1, §2, §3, §5, §7, §8

[18] = tested on: green foxtail (Setaria viridis); experiment: post-emergence herbicidal activity, green foxtail; settings: 1 Kg/Ha, about fourteen days, read-out: post-emergence herbicidal activity (% control) SETVI
Experimental: as §1, §2, §3, §5, §7, §8

[19] = tested on: Johnsongrass (Sorghum halepense); experiment: pre-emergence herbicidal activity, johnsongrass; settings: 1 kg/Ha, about fourteen days, read-out: pre-emergence herbicidal activity (% control) SORHA
Experimental: as §1, §2, §3, §4, §5, §6

[20] = tested on: Johnsongrass (Sorghum halepense); experiment: post-emergence herbicidal activity, johnsongrass; settings: 1 Kg/Ha, about fourteen days, read-out: post-emergence herbicidal activity (% control) SORHA
Experimental: as §1, §2, §3, §5, §7, §8

| Structure (SMILES) | activity at 1000 g/ha [1] [%] | activity at 1000 g/ha [2] [%] | activity at 1000 g/ha [3] [%] | activity at 1000 g/ha [4] [%] | activity at 1000 g/ha [5] [%] | activity at 1000 g/ha [6] [%] | activity at 1000 g/ha [7] [%] | activity at 1000 g/ha [8] [%] | activity at 1000 g/ha [9] [%] | activity at 1000 g/ha [10] [%] | activity at 1000 g/ha [11] [%] | activity at 1000 g/ha [12] [%] | activity at 1000 g/ha [13] [%] | activity at 1000 g/ha [14] [%] | activity at 1000 g/ha [15] [%] | activity at 1000 g/ha [16] [%] | activity at 1000 g/ha [17] [%] | activity at 1000 g/ha [18] [%] | activity at 1000 g/ha [19] [%] | activity at 1000 g/ha [20] [%] |
| --- | --- | --- | --- | --- | --- | --- | --- | --- | --- | --- | --- | --- | --- | --- | --- | --- | --- | --- | --- | --- |
| C=CCn1c(C(F)(F)F)cc(=O)n(-c2ccc(Cl)c3c2CN(C(C)C)C3=O)c1=O [Compound 80] | 70 | 80 | 70 | 100 | 80 | 100 | 40 | 80 | 95 | 85 | 50 | 75 | 95 | 30 | 100 | 40 | 65 | 80 | – | – |
| CON1Cc2c(-n3c(=O)cc(C(F)(F)F)n(C)c3=O)ccc(Cl)c2C1=O [Compound 21] | 100 | 100 | 100 | 100 | 100 | 100 | 100 | – | 100 | 100 | 80 | 80 | 100 | 100 | 100 | 95 | – | 100 | 100 | 100 |
| CCN1Cc2c(-n3c(=O)cc(C(F)(F)F)n(C)c3=O)ccc(Cl)c2C1=O [Compound 22] | 100 | 100 | 100 | 100 | 100 | 100 | 100 | – | 100 | 100 | 100 | 100 | 100 | 100 | 100 | 100 | – | 100 | 100 | 100 |
| CCON1Cc2c(-n3c(=O)cc(C(F)(F)F)n(C)c3=O)ccc(Cl)c2C1=O [Compound 19] | 100 | 100 | 100 | 100 | 100 | 100 | 100 | – | 100 | 100 | 100 | 100 | 100 | 100 | 100 | 100 | – | 100 | 100 | 100 |
| C=CCN1Cc2c(-n3c(=O)cc(C(F)(F)F)n(C)c3=O)ccc(Cl)c2C1=O [Compound 20] | 100 | 100 | 100 | 100 | 100 | 100 | 100 | – | 100 | 100 | 100 | 100 | 100 | 100 | 100 | 100 | – | 100 | 100 | 100 |
| CCCN1Cc2c(-n3c(=O)cc(C(F)(F)F)n(C)c3=O)ccc(Cl)c2C1=O [Compound 13] | 100 | 100 | 100 | 100 | 100 | 100 | 100 | 100 | 100 | 100 | 100 | 100 | 100 | 100 | – | 95 | – | 100 | 100 | 100 |
| Cn1c(C(F)(F)F)cc(=O)n(-c2ccc(Cl)c3c2CN(C(C)(C)C)C3=O)c1=O [Compound 14, 3-[7-chloro-2-(1,1-dimethylethyl)isoindolin-1-on-4-yl]-1-methyl-6-trifluoromethyl-2,4(1H,3H)-pyrimidinedione] | 100 | 100 | 100 | 100 | 100 | 100 | 100 | 100 | 100 | 100 | 100 | 80 | 100 | 90 | – | 100 | – | 100 | 100 | 100 |
| Cn1c(C(F)(F)F)cc(=O)n(-c2ccc(Cl)c3c2CNC3=O)c1=O [Compound 12] | 100 | 100 | 100 | 100 | 100 | 100 | 100 | 100 | 100 | 95 | 70 | 70 | 100 | 75 | – | 95 | – | 100 | 100 | 60 |
| Cn1c(C(F)(F)F)cc(=O)n(-c2c(Cl)cc(Cl)c3c2CN(O)C3=O)c1=O [Compound 16] | 50 | 70 | 90 | 100 | 65 | 5 | 80 | 60 | 100 | 60 | 20 | 40 | 50 | 20 | – | 30 | – | 30 | 100 | 30 |
